Assay results taken from PubChem BioAssay AID256 (DTP/NCI, 2004).
Values joined by “and” are separate entries in the source; they are usually repeats but may differ in a detail not shown here. Identical values can stand only once. Inconclusive results and toxic doses are left out. How the source made its calls: active means survival T/C of 150% or more; inactive means T/C below 125% in these data.

Test system: CD2F1 mice, L1210 leukemia ip, survival T/C
Experiment: NCI In Vivo Anticancer Drug Screen. Data for tumor model L1210 Leukemia (intraperitoneal) in CD2F1 (CDF1) mice
Conditions: higher = longer survival
How it was run: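 Tumor-bearing mice (transplanted tumor) were split into treated and vehicle control groups, and the measured endpoint of each treated group was divided by that of its vehicle controls.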

[1] = endpoint: mean survival time, dose: 12.5 mg/kg/injection, schedule: Q01DX009 (ip), vehicle: saline
[2] = endpoint: mean survival time, dose: 25.0 mg/kg/injection, schedule: Q01DX009 (ip), vehicle: saline
[3] = endpoint: mean survival time, dose: 50.0 mg/kg/injection, schedule: Q01DX009 (ip), vehicle: saline
[4] = endpoint: mean survival time, dose: 100.0 mg/kg/injection, schedule: Q01DX009 (ip), vehicle: saline
[5] = endpoint: mean survival time, dose: 100.0 mg/kg/injection, schedule: Q04DX003 (ip), vehicle: saline with Tween-80
[6] = endpoint: mean survival time, dose: 200.0 mg/kg/injection, schedule: Q04DX003 (ip), vehicle: saline with Tween-80

Measured: T/C

CCCC(=O)O
inactive: endpoint: mean survival time, dose: 1.25 mg/kg/injection, schedule: Q01DX009 (ip), vehicle: saline 96 % of control | [1] 98 % of control | [2] 96 % of control and 100 % of control | [3] 96 % of control and 97 % of control | [4] 97 % of control and 100 % of control | endpoint: mean survival time, dose: 100.0 mg/kg/injection, schedule: Q04DX003 (ip), vehicle: saline 102 % of control | endpoint: mean survival time, dose: 200.0 mg/kg/injection, schedule: Q01DX009 (ip), vehicle: saline 95 % of control and 107 % of control | endpoint: mean survival time, dose: 200.0 mg/kg/injection, schedule: Q04DX003 (ip), vehicle: saline 102 % of control | endpoint: mean survival time, dose: 400.0 mg/kg/injection, schedule: Q04DX003 (ip), vehicle: saline 105 % of control

C[S+](C)CC(C)(C)CI
inactive: endpoint: mean survival time, dose: 25.0 mg/kg/injection, schedule: Q01DX001 (ip), vehicle: saline 100 % of control | endpoint: mean survival time, dose: 50.0 mg/kg/injection, schedule: Q01DX001 (ip), vehicle: saline 110 % of control | endpoint: mean survival time, dose: 100.0 mg/kg/injection, schedule: Q01DX001 (ip), vehicle: saline 100 % of control and 101 % of control

CC(=O)C1=C(O)C(CSCc2ccccc2)N(C)C1=O (stereo not given)
inactive: endpoint: mean survival time, dose: 75.0 mg/kg/injection, schedule: Q01DX001 (ip), vehicle: other 95 % of control | endpoint: mean survival time, dose: 150.0 mg/kg/injection, schedule: Q01DX001 (ip), vehicle: other 92 % of control | endpoint: mean survival time, dose: 300.0 mg/kg/injection, schedule: Q01DX001 (ip), vehicle: other 91 % of control

COc1ccc(CC(C)NC(=O)c2ccc(OC)c(OC)c2)cc1OC (stereo not given)
inactive: endpoint: mean survival time, dose: 12.5 mg/kg/injection, schedule: Q01DX009 (ip), vehicle: other 105 % of control | endpoint: mean survival time, dose: 25.0 mg/kg/injection, schedule: Q01DX009 (ip), vehicle: other 94 % of control | endpoint: mean survival time, dose: 50.0 mg/kg/injection, schedule: Q01DX009 (ip), vehicle: other 96 % of control | endpoint: mean survival time, dose: 100.0 mg/kg/injection, schedule: Q01DX009 (ip), vehicle: other 93 % of control | endpoint: mean survival time, dose: 200.0 mg/kg/injection, schedule: Q01DX009 (ip), vehicle: other 94 % of control

Nc1ncn[nH]1
inactive: endpoint: mean survival time, dose: 200.0 mg/kg/injection, schedule: Q01DX009 (ip), vehicle: Klucel (hydroxypropylcellulose) (HPC) 95 % of control | endpoint: mean survival time, dose: 400.0 mg/kg/injection, schedule: Q01DX009 (ip), vehicle: Klucel (hydroxypropylcellulose) (HPC) 106 % of control

Cc1ccc(Cl)cc1NS(=O)(=O)c1cccc([N+](=O)[O-])c1
inactive: [5] 98 % of control | [6] 106 % of control | endpoint: mean survival time, dose: 400.0 mg/kg/injection, schedule: Q04DX003 (ip), vehicle: saline with Tween-80 88 % of control

O=C1c2ccccc2C(=O)N1CCS(=O)(=O)O
inactive: endpoint: mean survival time, dose: 100.0 mg/kg/injection, schedule: Q04DX002 (ip), vehicle: saline with Tween-80 97 % of control | endpoint: mean survival time, dose: 200.0 mg/kg/injection, schedule: Q04DX002 (ip), vehicle: saline with Tween-80 94 % of control | endpoint: mean survival time, dose: 400.0 mg/kg/injection, schedule: Q04DX002 (ip), vehicle: saline with Tween-80 94 % of control

O=C(Nc1ccc2c(c1)OCO2)O/N=C1\C(=O)Nc2ccccc21
inactive: [5] 100 % of control | [6] 86 % of control

Nc1cccc(=O)[nH]1
inactive: endpoint: mean survival time, dose: 12.5 mg/kg/injection, schedule: Q01DX009 (ip), vehicle: suspension in saline 96 % of control | endpoint: mean survival time, dose: 25.0 mg/kg/injection, schedule: Q01DX009 (ip), vehicle: suspension in saline 96 % of control and 104 % of control | endpoint: mean survival time, dose: 50.0 mg/kg/injection, schedule: Q01DX009 (ip), vehicle: suspension in saline 95 % of control and 96 % of control | endpoint: mean survival time, dose: 100.0 mg/kg/injection, schedule: Q01DX009 (ip), vehicle: suspension in saline 90 % of control and 96 % of control | endpoint: mean survival time, dose: 200.0 mg/kg/injection, schedule: Q01DX009 (ip), vehicle: suspension in saline 102 % of control and 107 % of control | endpoint: mean survival time, dose: 400.0 mg/kg/injection, schedule: Q01DX009 (ip), vehicle: suspension in saline 104 % of control

C=C(OC)C(Nc1cc(OC)c(OC)cc1C(=O)OC1CC(O[C@@H]2C(=O)C(NC(=O)OC)=C3/C(=C\CSSSC)[C@]2(O)C#C/C=C\C#C[C@@H]3OC2OC(C)C(NOC3CC(O)C(SC)C(C)O3)C(O)C2OC2CC(OC)C(NCCC)CO2)OC(C)C1O)OC (stereo not given in full)
inactive: endpoint: median survival time, dose: 0.1 micrograms/kg/injection, schedule: Q01DX005 (ip), vehicle: methylcellulose (MC) 117 % of control | endpoint: median survival time, dose: 0.2 micrograms/kg/injection, schedule: Q01DX005 (ip), vehicle: methylcellulose (MC) 117 % of control | endpoint: median survival time, dose: 0.2 micrograms/kg/injection, schedule: Q04DX003 (ip), vehicle: methylcellulose (MC) 109 % of control | endpoint: median survival time, dose: 0.32 micrograms/kg/injection, schedule: Q01DX005 (ip), vehicle: saline + alcohol 119 % of control | endpoint: median survival time, dose: 0.4 micrograms/kg/injection, schedule: Q01DX005 (ip), vehicle: methylcellulose (MC) 118 % of control | endpoint: median survival time, dose: 0.4 micrograms/kg/injection, schedule: Q04DX003 (ip), vehicle: methylcellulose (MC) 118 % of control | endpoint: median survival time, dose: 0.8 micrograms/kg/injection, schedule: Q01DX001 (ip), vehicle: methylcellulose (MC) 113 % of control | endpoint: median survival time, dose: 0.8 micrograms/kg/injection, schedule: Q04DX003 (ip), vehicle: methylcellulose (MC) 122 % of control | endpoint: median survival time, dose: 6.4 micrograms/kg/injection, schedule: Q01DX005 (ip), vehicle: methylcellulose (MC) 94 % of control | endpoint: median survival time, dose: 25.6 micrograms/kg/injection, schedule: Q01DX001 (ip), vehicle: methylcellulose (MC) 104 % of control
active: endpoint: median survival time, dose: 0.3 micrograms/kg/injection, schedule: Q01DX005 (ip), vehicle: saline + alcohol 180 % of control | endpoint: median survival time, dose: 0.5 micrograms/kg/injection, schedule: Q01DX005 (ip), vehicle: saline + alcohol 180 % of control | endpoint: median survival time, dose: 0.64 micrograms/kg/injection, schedule: Q01DX005 (ip), vehicle: saline + alcohol 151 % of control | endpoint: median survival time, dose: 0.8 micrograms/kg/injection, schedule: Q01DX005 (ip), vehicle: saline + alcohol 170 % of control | endpoint: median survival time, dose: 1.28 micrograms/kg/injection, schedule: Q01DX005 (ip), vehicle: saline + alcohol 170 % of control | endpoint: median survival time, dose: 1.3 micrograms/kg/injection, schedule: Q01DX005 (ip), vehicle: saline + alcohol 180 % of control | endpoint: median survival time, dose: 2.1 micrograms/kg/injection, schedule: Q01DX005 (ip), vehicle: saline + alcohol 180 % of control | endpoint: median survival time, dose: 3.2 micrograms/kg/injection, schedule: Q01DX005 (ip), vehicle: methylcellulose (MC) 162 % of control | endpoint: median survival time, dose: 6.4 micrograms/kg/injection, schedule: Q01DX001 (ip), vehicle: methylcellulose (MC) 150 % of control | endpoint: median survival time, dose: 6.4 micrograms/kg/injection, schedule: Q04DX003 (ip), vehicle: methylcellulose (MC) 152 % of control | endpoint: median survival time, dose: 12.8 micrograms/kg/injection, schedule: Q01DX001 (ip), vehicle: methylcellulose (MC) 150 % of control

Nc1nc(N)c2nc(CCOc3ccc(C(=O)NC(CCC(=O)O)C(=O)O)cc3)cnc2n1 (stereo not given)
inactive: endpoint: mean survival time, dose: 0.38 mg/kg/injection, schedule: Q01DX009 (ip), vehicle: sodium bicarbonate 87 % of control | endpoint: mean survival time, dose: 0.75 mg/kg/injection, schedule: Q01DX009 (ip), vehicle: sodium bicarbonate 90 % of control | endpoint: mean survival time, dose: 1.5 mg/kg/injection, schedule: Q01DX009 (ip), vehicle: sodium bicarbonate 87 % of control | endpoint: mean survival time, dose: 3.0 mg/kg/injection, schedule: Q01DX009 (ip), vehicle: sodium bicarbonate 87 % of control | endpoint: mean survival time, dose: 6.0 mg/kg/injection, schedule: Q01DX009 (ip), vehicle: sodium bicarbonate 98 % of control | endpoint: mean survival time, dose: 12.0 mg/kg/injection, schedule: Q01DX009 (ip), vehicle: distilled water + Tween-80 104 % of control | endpoint: mean survival time, dose: 24.0 mg/kg/injection, schedule: Q01DX009 (ip), vehicle: distilled water + Tween-80 102 % of control | endpoint: mean survival time, dose: 48.0 mg/kg/injection, schedule: Q01DX009 (ip), vehicle: distilled water + Tween-80 104 % of control

Oc1ccccc1C=NCCC[N-]CCCN=Cc1ccccc1O.[Co]
inactive: endpoint: mean survival time, dose: 6.25 mg/kg/injection, schedule: Q01DX009 (ip), vehicle: saline 102 % of control and 103 % of control | [1] 100 % of control and 103 % of control | [2] 110 % of control and 111 % of control | [3] 113 % of control and 100 % of control | [4] 104 % of control
